The supplement of paper PMC11208160

assay: recombinant barcode read abundance after kanamycin selection (control-corrected) (log10(CPM+1)); higher = more efficient recombination; sequences stand for … in AGTGCAGAGAAAATCGGCCAGTTTTCTCTGCCTGCAGTCCGCATGCCGT…AGATTTATGCAGCGGACTGCCTTTCTCCCAAAGTGATAAACCGGACAGTATCATGGACCGGTTTTCCCGGTAATCCGTATTTGCAAGGTTGGTTTCACT; site = the 11-nt target
In short: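 Targets were screened in pooled form in E. coli against IS621 bridge RNA target-binding loops. Recombination efficiency is based on barcode counts at recombinant junctions in counts per million, averaged and corrected for the control. Numbers are shown as log10(CPM+1), with duplicate plates on chloramphenicol/ampicillin LB agar (control) or chloramphenicol/ampicillin/kanamycin with 0.1 mM IPTG.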
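Further: IS621 recombinase and bridge RNA in Escherichia coli cells.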

Point of comparison: “GTGTCTCCTTGGGTTCTAACCTGTTGCCT (site TTGTCTCCTAG)”, “recombinant barcode read abundance (log10)” value 0.22. Against it:
- GTCTATACTTGGGTTCTAACCTGTTGCCA (site GTCTATACTTG) — higher, 0.571
- GTCTATACTTGGGTTCTAACCTGTTGCCA (site TTCTAGACTTG) — within 0.2 log units, 0.0838
- GTCTATACTTGGGTTCTAACCTGTTGCCT (site GTATATACTAG) — within 0.2 log units, 0.168
- GTCTATACTTGGGTTCTAACCTGTTGCCT (site GTCTATACTAG) — higher, 0.987
- GTCTATACTTGGGTTCTAACCTGTTGCCT (site GTGTATACTAG) — within 0.2 log units, 0.0645
- GTCTATACTTGGGTTCTAACCTGTTGCCT (site GTTTATACTAG) — within 0.2 log units, 0.311
- GTCTATGCTTGGGTTCTAACCTGTTGCGT (site GTCTAAGCTAA) — within 0.2 log units, 0.0746
- GTCTATGCTTGGGTTCTAACCTGTTGCGT (site GTCTATGCTAC) — within 0.2 log units, 0.0203
- GTCTCCTCTTGGGTTCTAACCTGTTGCCT (site GTCACCTCTAG) — within 0.2 log units, 0.0265
- GTCTCCTCTTGGGTTCTAACCTGTTGCCT (site GTCCCCTCTAG) — higher, 2.26
- GTCTCCTCTTGGGTTCTAACCTGTTGCCT (site GTCGCCTCTAG) — within 0.2 log units, 0.0306
- GTCTCCTCTTGGGTTCTAACCTGTTGCCT (site GTCTCCTCTAG) — higher, 1.62
- GTCTCTACTTGGGTTCTAACCTGTTGCCT (site GCCTCTTCTAG) — within 0.2 log units, 0.0271
- GTCTCTACTTGGGTTCTAACCTGTTGCCT (site GTCTCTACTAG) — within 0.2 log units, 0.221
- GTGAACTCTTGGGTTCTAACCTGTTGCTG (site GTGAACTCTCA) — higher, 2.33
- GTGAACTCTTGGGTTCTAACCTGTTGCTG (site GTGATCCCTCA) — within 0.2 log units, 0.0703
- GTGACTGCTTGGGTTCTAACCTGTTGCGT (site CACTAGACTCG) — lower, 0.0198
- GTGACTGCTTGGGTTCTAACCTGTTGCGT (site GTGACTGCTAC) — higher, 1.46
- GTGAGGTCTTGGGTTCTAACCTGTTGCAT (site GTGAGGTCTAA) — higher, 0.46
- GTGAGGTCTTGGGTTCTAACCTGTTGCAT (site GTGAGGTCTAC) — higher, 0.709
- GTGAGGTCTTGGGTTCTAACCTGTTGCAT (site GTGAGGTCTAG) — within 0.2 log units, 0.375
- GTGAGGTCTTGGGTTCTAACCTGTTGCAT (site GTGAGGTCTAT) — higher, 2.71
- GTGAGGTCTTGGGTTCTAACCTGTTGCGT (site GTGAGGTCTAA) — within 0.2 log units, 0.231
- GTGAGGTCTTGGGTTCTAACCTGTTGCGT (site GTGAGGTCTAC) — higher, 2.08
- GTGAGGTCTTGGGTTCTAACCTGTTGCGT (site GTGAGGTCTAG) — higher, 0.586
- GTGAGGTCTTGGGTTCTAACCTGTTGCGT (site GTGAGGTCTAT) — higher, 1.69
- GTGCAAACTTGGGTTCTAACCTGTTGCCT (site GTGCAAACTAG) — higher, 1.23
- GTGCAAACTTGGGTTCTAACCTGTTGCCT (site GTGCACACTTG) — within 0.2 log units, 0.0968
- GTGCTTACTTGGGTTCTAACCTGTTGCCT (site GAGCTTACTAG) — within 0.2 log units, 0.0771
- GTGCTTACTTGGGTTCTAACCTGTTGCCT (site GCGCTTACTAG) — within 0.2 log units, 0.0397
- GTGCTTACTTGGGTTCTAACCTGTTGCCT (site GGGCTTACTAG) — within 0.2 log units, 0.0436
- GTGCTTACTTGGGTTCTAACCTGTTGCCT (site GTGCTTACTAG) — higher, 0.538
- GTGGCTTCTTGGGTTCTAACCTGTTGCCT (site GAGGCTTCTAG) — within 0.2 log units, 0.128
- GTGGCTTCTTGGGTTCTAACCTGTTGCCT (site GCGGCTTCTAG) — within 0.2 log units, 0.248
- GTGGCTTCTTGGGTTCTAACCTGTTGCCT (site GGGGCTTCTAG) — within 0.2 log units, 0.132
- GTGGCTTCTTGGGTTCTAACCTGTTGCCT (site GTGGCTTCTAG) — within 0.2 log units, 0.389
- GTGTACCCTTGGGTTCTAACCTGTTGCGG (site GTGTACCCTAC) — higher, 1.94
- GTGTACCCTTGGGTTCTAACCTGTTGCGG (site GTGTACCCTCC) — higher, 1.93
- GTGTACCCTTGGGTTCTAACCTGTTGCGG (site GTGTACCCTGC) — within 0.2 log units, 0.161
- GTGTACCCTTGGGTTCTAACCTGTTGCGG (site GTGTACCCTTC) — within 0.2 log units, 0.253
- GTGTAGTCTTGGGTTCTAACCTGTTGCCG (site GTGTAGGCTCT) — within 0.2 log units, 0.254
- GTGTAGTCTTGGGTTCTAACCTGTTGCCG (site GTGTAGTCTCG) — higher, 1.19
- GTGTCACCTTGGGTTCTAACCTGTTGCCT (site GTGTCAACTAG) — within 0.2 log units, 0.205
- GTGTCACCTTGGGTTCTAACCTGTTGCCT (site GTGTCACCTAG) — higher, 1.52
- GTGTCACCTTGGGTTCTAACCTGTTGCCT (site GTGTCAGCTAG) — lower, 0.00534
- GTGTCACCTTGGGTTCTAACCTGTTGCCT (site GTGTCATCTAG) — within 0.2 log units, 0.091
- GTGTCTCCTTGGGTTCTAACCTGTTGCCT (site ATGTCTCCTAG) — within 0.2 log units, 0.233
- GTGTCTCCTTGGGTTCTAACCTGTTGCCT (site CTGTCTCCTAG) — within 0.2 log units, 0.103
- GTGTCTCCTTGGGTTCTAACCTGTTGCCT (site GTGTCTCCTAG) — higher, 0.962
- GTGTGAGCTTGGGTTCTAACCTGTTGCCG (site GTACGAGCTCG) — within 0.2 log units, 0.269
- GTGTGAGCTTGGGTTCTAACCTGTTGCCG (site GTGTGAGCTCG) — higher, 1.74
- GTGTGTCCTTGGGTTCTAACCTGTTGCCT (site GTGTGTACTAG) — within 0.2 log units, 0.0295
- GTGTGTCCTTGGGTTCTAACCTGTTGCCT (site GTGTGTCCTAG) — higher, 1.31
- GTGTGTCCTTGGGTTCTAACCTGTTGCCT (site GTGTGTGCTAG) — within 0.2 log units, 0.155
- GTGTGTCCTTGGGTTCTAACCTGTTGCCT (site GTGTGTTCTAG) — within 0.2 log units, 0.108
- GTTACCGCTTGGGTTCTAACCTGTTGCCT (site GTAACCGCTAG) — higher, 0.602
- GTTACCGCTTGGGTTCTAACCTGTTGCCT (site GTCACCGCTAG) — within 0.2 log units, 0.345
- GTTACCGCTTGGGTTCTAACCTGTTGCCT (site GTGACCGCTAG) — within 0.2 log units, 0.0865
